Key:
Format in all cases: cell-based, Pseudomonas aeruginosa
qsc118 (RhlI) = assay: Acyl-HSL induction of β-galactosidase in qsc118 mutant; conditions: qsc118, Class III; 3OC12-HSL 2 μM, C4-HSL 5 μM
qtc136 = assay: Acyl-HSL induction of β-galactosidase in qtc136 mutant; conditions: qtc136, Class IV; 3OC12-HSL 2 μM, C4-HSL 5 μM
[1] = test system: qsc126 (Pristanimycin I synthase 3 & 4); assay: Acyl-HSL induction of β-galactosidase in qsc126 mutant; conditions: qsc126, Class III; 3OC12-HSL 2 μM, C4-HSL 5 μM
qsc116 = assay: Acyl-HSL induction of β-galactosidase in qsc116 mutant; conditions: qsc116, Class II; 3OC12-HSL 2 μM, C4-HSL 5 μM
[2] = test system: qsc105 (FAD-binding protein); assay: Acyl-HSL induction of β-galactosidase in qsc105 mutant; conditions: qsc105, Class I; 3OC12-HSL 2 μM, C4-HSL 5 μM
[3] = test system: qsc129A&B (Cellulose binding protein p40); assay: Acyl-HSL induction of β-galactosidase in qsc129A&B mutants; conditions: Class III, 3OC12-HSL 2 μM, C4-HSL 5 μM
[4] = test system: quorum sensing signaling (Las system), QSC102 lacZ; assay: Two-strain (PAO1 / QSC102) screening assay for quorum sensing inhibiting compounds; conditions: β-galactosidase / blue color on X-gal
Protocol: In this example, the screening assay used two strains of P. aeruginosa: a wild type P. aeruginosa (PAO1) and QSC102, from Example 1 (see FIG. 8). This assay will detect inhibition of all aspects of quorum sensing signaling, e.g., signal generation and signal reception.
Microtiter plates are prepared by adding 200 μL Luria Broth (“LB”) agar, containing 0.008% 5-bromo-4-chloro-3-indolyl-β-D-galactose (X-gal) to each well. Overnight cultures of PAO1 and QSC102 are subcultured in LB to a starting absorbance at 600 nm (“A600”) of 0.05 and grown at 37° C to an A600 of 1.0. PAO1 is diluted 2.5×10^5-fold in LB and 5 μL of this is applied to the surface of the LB agar in each well. Plates are then dried in a laminar flow hood for 60 minutes. A tenfold dilution of QSC102 in LB is used to inoculate each well using a replicator. Plates are then sealed and incubated at 37° C for 40 hours. Growth and color development are evaluated visually and the data is recorded with a camera.
The test compound was present in a microtiter well and overlaid with LB agar and 5-bromo-4-chloro-3-indolyl-β-D-galactose (X-gal). Both strains were spotted on the agar in each well. […] Inhibition of signaling was evaluated qualitatively by the absence or weakening of the blue color development.

qsc115 = assay: Acyl-HSL induction of β-galactosidase in qsc115 mutant; conditions: qsc115, Class II; 3OC12-HSL 2 μM, C4-HSL 5 μM
[5] = test system: qsc110A&B (Pyoverdine synthetase D); assay: Acyl-HSL induction of β-galactosidase in qsc110A&B mutants; conditions: Class II, 3OC12-HSL 2 μM, C4-HSL 5 μM
[6] = test system: qsc130 (glc operon transcriptional activator); assay: Acyl-HSL induction of β-galactosidase in qsc130 mutant; conditions: qsc130, Class III; 3OC12-HSL 2 μM, C4-HSL 5 μM
[7] = test system: qsc109 (Bacitracin synthetase 3); assay: Acyl-HSL induction of β-galactosidase in qsc109 mutant; conditions: qsc109, Class II; 3OC12-HSL 2 μM, C4-HSL 5 μM
[8] = test system: qcs117 (ACP-like protein); assay: Acyl-HSL induction of β-galactosidase in qcs117 mutant; conditions: qcs117, Class III; 3OC12-HSL 2 μM, C4-HSL 5 μM
qsc119 (RhlB) = assay: Acyl-HSL induction of β-galactosidase in qsc119 mutant; conditions: qsc119, Class III; 3OC12-HSL 2 μM, C4-HSL 5 μM
qsc106A&B = assay: Acyl-HSL induction of β-galactosidase in qsc106A&B mutants; conditions: Class I, 3OC12-HSL 2 μM, C4-HSL 5 μM
qsc102 = assay: Acyl-HSL induction of β-galactosidase in qsc102 mutant; conditions: for Signal response (β-galactosidase activity with signal(s) divided by activity without added signals), maximum: qsc102, Class I, 3OC12-HSL 2 μM, C4-HSL 5 μM
Protocol: E. coli and P. aeruginosa were routinely grown in Luria-Bertani (LB) broth or LB agar (Sambrook, et al. (1989) Molecular Cloning: a Laboratory Manual. (Cold Spring Harbor Laboratory, Cold Spring Harbor, N.Y.)), supplemented with antimicrobial agents when necessary. The antimicrobial agents were used at the following concentrations: HgCl2, 15 μg/ml in agar and 7.5 μg/ml in broth; nalidixic acid 20 μg/ml; carbenicillin, 300 μg/ml; tetracycline, 50 μg/ml for P. aeruginosa and 20 μg/ml for E. coli; and gentamicin, 100 μg/ml for P. aeruginosa and 15 μg/ml for E. coli. Synthetic acyl-HSL concentrations were 2 μM for 3OC12-HSL and 5 μM for C4-HSL, and 5-bromo4-chloro-3-indolyl-β-D-galactopyranoside (X-Gal) was used at 50 μg/ml.
Patterns of Acyl-HSL Induction of β-galactosidase Activity in qsc Mutants. The pattern of β-galactosidase expression was examined in response to acyl-HSLs in each of 47 qsc mutants identified in the initial screen. Each mutant was grown in 1 ml of MOPS (50 mM, pH 7.0) buffered LB broth containing one, the other, both, or neither acyl-HSL signal in an 18 mm culture tube at 37° C. with shaking. A mid-logarithmic phase culture was used as an inoculum and initial optical densities (ODs) at 600 nm were 0.1. Growth was monitored as OD at 600 nm and β-galactosidase activity was measured in 0.1 ml samples taken at 0, 2, 5, and 9 hours after inoculation.
One assay used the P. aeruginosa strain QSC102 (Table 3), which responds to the presence of exogenous 3-oxo-C12-HSL by inducing β-galactosidase activity up to 400-fold (Example 1). Cells were grown in the presence of a minimal concentration of 3-oxo-C12-HSL and in the presence and absence of the test compound. If the test compound interferes with signal reception, β-galactosidase activity is reduced. Interference can be a result of any of several mechanisms. The simplest is, if the test compound prevents the 3oxo-C12-HSL from binding to LasR. Alternatively, the test compound may prevent LasR from binding to DNA or interacting productively with RNA polymerase.

qsc103 = assay: Acyl-HSL induction of β-galactosidase in qsc103 mutant; conditions: qsc103, Class I; 3OC12-HSL 2 μM, C4-HSL 5 μM

Structure (SMILES)	Signal response (β-galactosidase activity with signal(s) divided by activity without added signals), maximum (qsc118 (RhlI))	Signal response (β-galactosidase activity with signal(s) divided by activity without added signals), maximum (qtc136)	Signal response (β-galactosidase activity with signal(s) divided by activity without added signals), maximum [1]	Signal response (β-galactosidase activity with signal(s) divided by activity without added signals), maximum (qsc116)	Signal response (β-galactosidase activity with signal(s) divided by activity without added signals), maximum [2]	Signal response (β-galactosidase activity with signal(s) divided by activity without added signals), maximum [3]	Response of the QSC102 lacZ fusion to the signal [4]	Signal response (β-galactosidase activity with signal(s) divided by activity without added signals), maximum (qsc115)	Signal response (β-galactosidase activity with signal(s) divided by activity without added signals), maximum [5]	Signal response (β-galactosidase activity with signal(s) divided by activity without added signals), maximum [6]	Signal response (β-galactosidase activity with signal(s) divided by activity without added signals), maximum [7]	Signal response (β-galactosidase activity with signal(s) divided by activity without added signals), maximum [8]	Signal response (β-galactosidase activity with signal(s) divided by activity without added signals), maximum (qsc119 (RhlB))	Signal response (β-galactosidase activity with signal(s) divided by activity without added signals), maximum (qsc106A&B)	Signal response (β-galactosidase activity with signal(s) divided by activity without added signals), maximum (qsc102)	Induction of β-galactosidase activity (qsc102; strain QSC102, exogenous signal)	Signal response (β-galactosidase activity with signal(s) divided by activity without added signals), maximum (qsc103)
CCCCCCCCCC(=O)CC(=O)N[C@H]1CCOC1=O [3OC12-HSL, N-(3-oxododecanoyl) homoserine lactone]	38	7	3	5	40	15	responded by turning blue	4	10	5	13	22	9	9	350	up to 400 fold	85
CCCC(=O)N[C@H]1CCOC1=O [C4-HSL, butanoyl-HSL]	14	3	5	1	1	1	did not respond	1	1	1	1	22	7	1	1	–	1

Source: patent publication US6855513B1 (priority 1999, dated 2005)
